Values of other authors, collected in US20040106561A1, “Health supplement” (Novogen Research Pty. Ltd., priority 1992, published 2004).

test system: oestrogen receptors; conditions: animal and in vitro studies

| SMILES | oestrogenic/anti-oestrogenic activity and SHBG-stimulating capacity relative to daidzein and formononetin |
| --- | --- |
| O=c1c(-c2ccc(O)cc2)coc2cc(O)cc(O)c12 [genistein] | approximately 10 times |

same assay, conditions: in vitro and in vivo studies; descending order genistein, biochanin A, equol, daidzein, formononetin

| SMILES | oestrogenic activity |
| --- | --- |
| CC(C(=O)c1ccc(O)cc1O)c1ccc(O)cc1 (stereo not shown) [O-desmethylangolensin] | only very weakly oestrogenic |
| COc1ccc(-c2coc3cc(O)cc(O)c3c2=O)cc1 [biochanin A] | oestrogenic activity |
| O=c1c(-c2ccc(O)cc2)coc2cc(O)ccc12 [daidzein] | oestrogenic activity |
| Oc1ccc([C@H]2COc3cc(O)ccc3C2)cc1 [equol] | oestrogenic activity |
| O=c1c(-c2ccc(O)cc2)coc2cc(O)cc(O)c12 [genistein] | oestrogenic activity |
| COc1cc2c(=O)c(-c3ccc(O)cc3)coc2cc1O [glycitein] | non-oestrogenic |
